According to PubChem BioAssay (NCI):
Where “and” joins values, the source holds several entries; their conditions need not be identical. Equal entries are not always repeated.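 Protocol summary: plate cells (96-well), add compound at 5 concentrations, incubate 48 h, interpolate endpoints linearly. The concentration for 50% growth inhibition is given as GI50. TGI: total growth inhibition.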

Legend:
Test in all cases: NCI anticancer screen, dose series, 48 h
ACHN renal = test system: ACHN renal
SNB-75 CNS = test system: SNB-75 CNS
LOX IMVI melanoma = test system: LOX IMVI melanoma
SK-MEL-28 melanoma = test system: SK-MEL-28 melanoma
OVCAR-3 ovarian = test system: OVCAR-3 ovarian
RXF 393 renal = test system: RXF 393 renal
K-562 leukemia = test system: K-562 leukemia
A498 renal = test system: A498 renal
HS 578T breast = test system: HS 578T breast
MCF7 breast = test system: MCF7 breast

SMILES | TGI (ACHN renal) | TGI (SNB-75 CNS) [µM] | TGI (LOX IMVI melanoma) | TGI (SK-MEL-28 melanoma) | TGI (OVCAR-3 ovarian) | TGI (RXF 393 renal) | TGI (K-562 leukemia) | TGI (A498 renal) [µM] | GI50 (SNB-75 CNS) [µM] | GI50 (LOX IMVI melanoma) [µM] | GI50 (SK-MEL-28 melanoma) [µM] | GI50 (OVCAR-3 ovarian) [µM] | GI50 (K-562 leukemia) [µM] | GI50 (HS 578T breast) [µM] | TGI (HS 578T breast) | GI50 (MCF7 breast) [µM] | TGI (MCF7 breast) | GI50 (ACHN renal) [µM] | GI50 (RXF 393 renal) [µM] | GI50 (A498 renal) [µM]
CC(=O)CC(=O)N(CCN(C(=O)CC(C)=O)c1ccccc1)c1ccccc1 | > 100 µM | > 100 | > 100 µM | > 100 µM | > 100 µM | > 100 µM | > 100 µM | > 100 | – | – | – | – | – | – | – | – | – | – | – | –
CN1CCC23c4c5ccc(O)c4OC2C(=NN=C2CCC4(O)C6Cc7ccc(O)c8c7C4(CCN6C)C2O8)CCC3(O)C1C5 (stereo not given) | > 100 µM | > 100 | > 100 µM | > 100 µM | > 100 µM | – | > 100 µM | > 100 | – | – | – | – | – | – | – | – | – | – | – | –
CC1=CC(=O)C(C)(C2=NC(C)(C)CO2)c2ccccc21 (stereo not given) | > 100 µM | > 100 | – | > 100 µM | > 100 µM | > 100 µM | > 100 µM | – | – | – | – | – | – | – | – | – | – | – | – | –
O=S(=O)(/C=C/C=C/S(=O)(=O)c1ccccc1)c1ccccc1 | 2.06 µM and 2.05 µM | 26.8 | 2.42 µM and 3.33 µM | 1.96 µM and 5.79 µM | 1.82 µM and 2.9 µM | 0.809 µM and 1.45 µM | 1.26 µM and 0.516 µM | – | 13.9 | 1.42 | 2.49 | 1.46 | 0.179 | 2.93 | 8.24 µM and 8.07 µM | 0.525 | 3.81 µM and 2.3 µM | – | – | –
O=c1c(O)c(-c2ccc(O)c(O)c2)oc2cc(O)ccc12 | > 91 µM | 18.2 | 32.4 µM | > 58.4 µM | 62 µM | 47 µM | > 100 µM | 62.3 | – | – | – | – | – | – | – | – | – | – | – | –
CCOC(=O)C1Cc2c(ccc(OC)c2OC)C(=O)C1N (stereo not given) | > 100 µM | > 100 | > 100 µM | > 100 µM | > 100 µM | > 100 µM | > 100 µM | – | – | – | – | – | – | – | – | – | – | – | – | –
CCC[CH2][Sn]1([CH2]CCC)[O]C(c2ccccn2)S(=O)(=O)[O]1 (stereo not given) | 20 µM | 7.26 | 3.07 µM | 3.76 µM | 11.6 µM | 3.95 µM | 6.72 µM | 32.1 | 2.53 | 1.64 | 1.94 | 3.06 | 2.14 | – | – | – | – | 7.88 | 2.36 | 18.1
O=C(O)/C(Cl)=C(\Cl)Nc1cccc(C(F)(F)F)c1 | > 100 µM | > 100 | > 100 µM | > 100 µM | > 100 µM | > 100 µM | > 100 µM | – | – | – | – | – | – | – | – | – | – | – | – | –
CC1(C)CCC(=O)c2c(O)ccc(O)c21 | – | 98.3 | – | > 100 µM | > 100 µM | 77.7 µM | > 100 µM | – | – | – | – | – | – | – | – | – | – | – | – | –
CCCCCCCCCOC(=S)NC | 37.6 µM | 73.7 | 35.5 µM | 58.5 µM | 36.1 µM | – | 51.1 µM | 48.8 | – | – | – | – | – | – | – | – | – | – | – | –
CC(=O)O[C@H](C[C@H](C(C)C)N(C)C(=O)[C@@H](NC(=O)[C@H]1CCCCN1C)C(C)C)c1nc(C(=O)N[C@@H](Cc2ccccc2)C[C@H](C)C(=O)O)c(C)s1 | – | > 25 | > 25 µM | > 25 µM | > 25 µM | – | > 25 µM | < 0.0025 | < 0.0025 | < 0.0025 | < 0.0025 | < 0.0025 | < 0.0025 | < 0.0025 | > 25 µM | < 0.0025 | > 25 µM | – | – | < 0.0025
O=c1ncc(-c2ccc(C(F)(F)F)cc2)c(NC2CCCCCC2)[nH]1 | > 100 µM | 33.4 | – | 33.9 µM | 34.6 µM | 31.8 µM | 60.1 µM | 34 | 13.7 | – | 17 | 17.2 | 24.2 | 17.9 | 53.9 µM | 16.2 | 56.4 µM | 30.9 | 15.8 | 16.1
CC(=O)[CH-]C(=O)c1ccccc1.CC(=O)[CH-]C(=O)c1ccccc1.O=C([O-])C[O-].O=C([O-])C[O-].[Ti+4] | > 100 µM | 56.7 | > 100 µM | > 100 µM | > 100 µM | – | > 100 µM | > 100 | 18.6 | 41.2 | 68.1 | 42.7 | 71.4 | – | – | – | – | 44.9 | – | > 100
CCc1ccccc1NC(=O)/C(CC(=O)c1c(C)n([O-])c2ccccc2[n+]1=O)=N\NS(=O)(=O)c1ccc(C)cc1 | > 100 µM | > 100 | – | > 100 µM | 80.2 µM | > 100 µM | > 100 µM | > 100 | – | – | – | – | – | – | – | – | – | – | – | –
CSc1ccc(-c2cn3ccsc3n2)c(O)c1 | > 100 µM | > 94.7 | > 56.5 µM | > 100 µM | > 100 µM | – | > 60.2 µM | > 100 | – | – | – | – | – | – | – | – | – | – | – | –
COc1cc2[nH]c(C(=O)c3cc(OC)c(OC)c(OC)c3)c(N)c2cc1C#CCO | > 100 µM | – | 21.5 µM | > 100 µM | 0.243 µM | – | > 100 µM | 2.14 | – | 0.502 | 0.896 | 0.0491 | 0.347 | 0.345 | 72.3 µM | 0.0886 | > 100 µM | 0.515 | – | 0.23
CC1=CC2=C(OCO1)C(=O)c1ccccc1C2=O | 18.6 µM | 9.1 | 8.38 µM | 10.3 µM | 13.3 µM | 12.5 µM | 40.3 µM | 29.5 | – | – | – | – | – | – | 4.25 µM | – | – | – | – | –
C=C1C(=O)O[C@@H]2[C@H]1CC[C@H](C)[C@]1(O)CCC(=O)[C@@]21C | – | > 10 | > 10 µM | > 10 µM | > 10 µM | > 10 µM | > 10 µM | – | – | – | – | – | – | – | > 10 µM | – | > 10 µM | – | – | –
C/C(=N\O)c1sc(-n2nc(-c3ccccc3)cc2-c2ccccc2)nc1C | 19.6 µM | > 31.6 | 18 µM | 17.8 µM | > 31.6 µM | – | 24.6 µM | > 31.6 | – | – | – | – | – | – | – | – | – | – | – | –
Cc1cc(N(CCC#N)CCC#N)ccc1/C=C1/CN(N2C(=O)/C(=C/c3ccc(N(CCC#N)CCC#N)cc3C)N=C2c2ccccc2)C(c2ccccc2)=N1 | > 100 µM | 51.1 | > 100 µM | > 100 µM | > 100 µM | 76.8 µM | > 100 µM | > 100 | – | – | – | – | – | – | – | – | – | – | – | –
Cc1cc(C)c(C(=O)O)c(N)c1O | > 100 µM | > 100 | > 100 µM | > 100 µM | > 100 µM | > 100 µM | > 100 µM | > 100 | – | – | – | – | – | – | – | – | – | – | – | –
